The target of the experiment is human APJ receptor (Homo sapiens (Human), UniProt P35414). Briefly: Intracellular cAMP accumulation assay (APJ hcAMP, HTRF). It is filed as cell-based. To be noted: human APJ, cAMP accumulation; read-out: Human APJ cAMP EC50 Potency range. A digest of the protocol: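 HEK293 cells stably expressing human APJ, 5,000 per well, incubated 30 min at rt with compound, […] and 2 μM forskolin. cAMP measured by HTRF against a cAMP standard curve as inhibition of forskolin-driven production. EC50 from variable-slope sigmoidal fit.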
Chain of human APJ receptor (P35414 whole entry): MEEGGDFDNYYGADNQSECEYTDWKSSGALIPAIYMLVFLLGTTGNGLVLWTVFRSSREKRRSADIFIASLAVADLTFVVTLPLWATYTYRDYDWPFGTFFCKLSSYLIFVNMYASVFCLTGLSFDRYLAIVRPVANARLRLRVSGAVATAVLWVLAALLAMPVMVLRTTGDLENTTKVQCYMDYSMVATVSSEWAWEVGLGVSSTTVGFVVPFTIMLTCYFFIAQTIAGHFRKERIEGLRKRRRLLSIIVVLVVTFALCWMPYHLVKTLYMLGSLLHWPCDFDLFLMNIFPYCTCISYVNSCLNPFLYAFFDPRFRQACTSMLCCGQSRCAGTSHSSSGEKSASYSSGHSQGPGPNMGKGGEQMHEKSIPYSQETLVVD
(In general: cAMP levels reflect the balance of adenylyl cyclase and phosphodiesterase activity.)
Take `COC[C@@H](c1ccccc1)n1c(COC(C)C)nc(=O)c(S(=O)(=O)c2ccc(-c3ccnc(F)c3C)c(F)c2)c1O` [Example 333, 5-[3-fluoro-4-(2-fluoro-3-methylpyridin-4-yl)benzenesulfonyl]-6-hydroxy-1-[(1R)-2-methoxy-1-phenylethyl]-2-[(propan-2-yloxy)methyl]-1,4-dihydropyrimidin-4-one]: the 50% effective concentration (EC50) (in general, the concentration giving half of the maximal effect) is 0.01 to 10 nM.

`CCOCc1nc(=O)c(S(=O)(=O)c2ccc(-c3cncc(F)c3)cc2)c(O)n1[C@@H](CC)c1ccccc1` [Example 334, 2-(ethoxymethyl)-5-[4-(5-fluoropyridin-3-yl)benzenesulfonyl]-6-hydroxy-1-[(1S)-1-phenylpropyl]-1,4-dihydropyrimidin-4-one]: the EC50 fell in the range of 0.01 to 10 nM.

With `COC[C@@H](c1ccccc1)n1c(COC(C)C)nc(=O)c(S(=O)(=O)c2ccc(-c3ccc(F)nc3)c(F)c2)c1O` [Example 335, 5-[3-fluoro-4-(6-fluoropyridin-3-yl)benzenesulfonyl]-6-hydroxy-1-[(1R)-2-methoxy-1-phenylethyl]-2-[(propan-2-yloxy)methyl]-1,4-dihydropyrimidin-4-one], the EC50 fell in the range of 0.01 to 10 nM.

In the case of `COC[C@@H](c1ccccc1)n1c(COC(C)C)nc(=O)c(S(=O)(=O)c2ccc(-c3ccncc3C)c(F)c2)c1O` [Example 336, 5-[3-fluoro-4-(3-methylpyridin-4-yl)benzenesulfonyl]-6-hydroxy-1-[(1R)-2-methoxy-1-phenylethyl]-2-[(propan-2-yloxy)methyl]-1,4-dihydropyrimidin-4-one], the EC50 is 0.01 to 10 nM.

As to `COC[C@@H](c1ccccc1)n1c(COC(C)C)nc(=O)c(S(=O)(=O)c2ccc(F)c(F)c2)c1O` [Example 337, 5-(3,4-difluorobenzenesulfonyl)-6-hydroxy-1-[(1R)-2-methoxy-1-phenylethyl]-2-[(propan-2-yloxy)methyl]-1,4-dihydropyrimidin-4-one], the EC50 is 0.01 to 10 nM.

As to `CCOCc1nc(=O)c(S(=O)(=O)c2ccc(-c3ccnc(F)c3C)c(F)c2)c(O)n1[C@@H](COC)c1ccccc1` [Example 338, 2-(ethoxymethyl)-5-[3-fluoro-4-(2-fluoro-3-methylpyridin-4-yl)benzenesulfonyl]-6-hydroxy-1-[(1R)-2-methoxy-1-phenylethyl]-1,4-dihydropyrimidin-4-one], the EC50 is 0.01 to 10 nM.

Regarding `CCOCc1nc(=O)c(S(=O)(=O)c2ccc(-c3ccc(F)nc3C)c(F)c2)c(O)n1[C@@H](COC)c1ccccc1` [Example 339, 2-(ethoxymethyl)-5-[3-fluoro-4-(6-fluoro-2-methylpyridin-3-yl)benzenesulfonyl]-6-hydroxy-1-[(1R)-2-methoxy-1-phenylethyl]-1,4-dihydropyrimidin-4-one], the EC50 lay in the range of 0.01 to 10 nM.

`CCOCc1nc(=O)c(S(=O)(=O)c2ccc(-c3ccncc3C)c(F)c2)c(O)n1[C@@H](COC)c1ccccc1` [Example 340, 2-(ethoxymethyl)-5-[3-fluoro-4-(3-methylpyridin-4-yl)benzenesulfonyl]-6-hydroxy-1-[(1R)-2-methoxy-1-phenylethyl]-1,4-dihydropyrimidin-4-one]: the concentration giving a half-maximal response (EC50) is 0.01 to 10 nM.

For `CCOCc1nc(=O)c(S(=O)(=O)c2ccc(-c3ccc(F)nc3)c(F)c2)c(O)n1[C@@H](COC)c1ccccc1` [Example 341, 2-(ethoxymethyl)-5-[3-fluoro-4-(6-fluoropyridin-3-yl)benzenesulfonyl]-6-hydroxy-1-[(1R)-2-methoxy-1-phenylethyl]-1,4-dihydropyrimidin-4-one], the EC50 was 0.01 to 10 nM.

For `CCOCc1nc(=O)c(S(=O)(=O)c2ccc(-c3ccnc(F)c3C)cc2)c(O)n1[C@H]1CCOc2ccccc21` [Example 342, 1-[(4S)-3,4-dihydro-2H-1-benzopyran-4-yl]-2-(ethoxymethyl)-5-[4-(2-fluoro-3-methylpyridin-4-yl)benzenesulfonyl]-6-hydroxy-1,4-dihydropyrimidin-4-one], the EC50 lay within 10 to 100 nM.
